We go through 16 compounds from ChEMBL document CHEMBL1136102, “Synthesis and antibacterial activity of oxazolidinone containing sulphonyl group” (2003).

Broadly, the MIC is the least concentration at which growth counts as inhibited.

Format in all cases: functional
In one experiment the test system is Streptococcus. Briefly: In vitro antibacterial activity against Streptococcus.
Another experiment deals with Streptococcus pneumoniae. The experiment is described as follows: In vitro antibacterial activity against Streptococcus pneumoniae.
Another experiment has as its system Staphylococcus aureus. The experiment is described as follows: In vitro antibacterial activity against Staphylococcus aureus.
The test system of experiment [1] is Staphylococcus epidermidis. Briefly: In vitro antibacterial activity against Staphylococcus epidermidis.
A further experiment deals with Staphylococcus hominis. The experiment is described as follows: In vitro antibacterial activity against Staphylococcus hominis.

Values after ≈ are worked out from the molar mass of the structure shown. Bounds are passed on as bounds.

Regarding `CC(=O)NC[C@H]1CN(c2ccc(N3CCN(S(=O)(=O)c4ccc(N)cc4)CC3)c(F)c2)C(=O)O1`, the MIC with Streptococcus was found to be 16 µg/mL (≈ 32.6 µM); against Streptococcus pneumoniae, 16 µg/mL (≈ 32.6 µM); in the experiment with Staphylococcus aureus it was 16 µg/mL (≈ 32.6 µM); in experiment [1], 0.25 µg/mL (≈ 0.509 µM); in the experiment on Staphylococcus hominis, 0.25 µg/mL (≈ 0.509 µM).

With `CC(=O)NC[C@H]1CN(c2ccc(N3CCN(S(=O)(=O)c4ccccc4N)CC3)c(F)c2)C(=O)O1`, the MIC stood at 2 µg/mL (≈ 4.07 µM) with Streptococcus, 2 µg/mL (≈ 4.07 µM) with Streptococcus pneumoniae, 8 µg/mL (≈ 16.3 µM) against Staphylococcus aureus and 4 µg/mL (≈ 8.14 µM) in experiment [1].

Consider `CC(=O)NC[C@H]1CN(c2ccc(N3CCN(S(=O)(=O)c4ccc([N+](=O)[O-])cc4)CC3)c(F)c2)C(=O)O1`, for which the MIC is 128 µg/mL (≈ 245 µM) in the experiment on Streptococcus; 128 µg/mL (≈ 245 µM) in the experiment with Streptococcus pneumoniae; 128 µg/mL (≈ 245 µM) in the experiment on Staphylococcus aureus; 8 µg/mL (≈ 15.3 µM) in experiment [1]; 32 µg/mL (≈ 61.4 µM) in the experiment on Staphylococcus hominis.

In the case of `COc1ccc(S(=O)(=O)N2CCN(c3ccc(N4C[C@H](CNC(C)=O)OC4=O)cc3F)CC2)cc1`, the MIC was determined as 16 µg/mL (≈ 31.6 µM) with Streptococcus; 8 µg/mL (≈ 15.8 µM) against Streptococcus pneumoniae; 16 µg/mL (≈ 31.6 µM) against Staphylococcus aureus; 0.5 µg/mL (≈ 0.987 µM) in experiment [1]; 2 µg/mL (≈ 3.95 µM) in the experiment on Staphylococcus hominis.

As for `CC(=O)NC[C@H]1CN(c2ccc(N3CCN(S(=O)(=O)c4ccccc4NC(C)=O)CC3)c(F)c2)C(=O)O1`, the MIC (with Streptococcus; in the experiment with Streptococcus pneumoniae; in the experiment on Staphylococcus aureus; in experiment [1]; with Staphylococcus hominis) was > 64 µg/mL throughout.

With `CC(=O)NC[C@H]1CN(c2ccc(N3CCN(S(=O)(=O)c4cccc(NC(C)=O)c4)CC3)c(F)c2)C(=O)O1`, the MIC (in the experiment on Streptococcus; in the experiment on Streptococcus pneumoniae; in the experiment on Staphylococcus aureus; in experiment [1]; with Staphylococcus hominis) was > 128 µg/mL each time.

For `CC(=O)NC[C@H]1CN(c2ccc(N3CCN(S(=O)(=O)c4ccc(Br)cc4)CC3)c(F)c2)C(=O)O1`, the MIC is > 128 µg/mL against Streptococcus; > 128 µg/mL in the experiment on Streptococcus pneumoniae; > 128 µg/mL with Staphylococcus aureus; 128 µg/mL (≈ 230 µM) in experiment [1]; > 128 µg/mL against Staphylococcus hominis.

Turning to `CC(=O)NC[C@H]1CN(c2ccc(N3CCN(S(=O)(=O)c4ccc(NC(C)=O)cc4)CC3)c(F)c2)C(=O)O1`, the MIC with Streptococcus was 32 µg/mL (≈ 60 µM); in the experiment on Streptococcus pneumoniae, 32 µg/mL (≈ 60 µM); in the experiment with Staphylococcus aureus, 32 µg/mL (≈ 60 µM); in experiment [1], 1 µg/mL (≈ 1.87 µM); in the experiment on Staphylococcus hominis, 4 µg/mL (≈ 7.5 µM).

Take `CC(=O)NC[C@H]1CN(c2ccc(N3CCN(S(=O)(=O)c4ccccc4[N+](=O)[O-])CC3)c(F)c2)C(=O)O1`: the MIC in the experiment on Streptococcus was 8 µg/mL (≈ 15.3 µM); in the experiment with Streptococcus pneumoniae, 8 µg/mL (≈ 15.3 µM); in the experiment on Staphylococcus aureus, 8 µg/mL (≈ 15.3 µM); in experiment [1], 4 µg/mL (≈ 7.67 µM).

`CC(=O)NC[C@H]1CN(c2ccc(N3CCN(S(=O)(=O)c4ccc(C)cc4)CC3)c(F)c2)C(=O)O1`: the MIC in the experiment on Streptococcus is 128 µg/mL (≈ 261 µM); in the experiment on Streptococcus pneumoniae it was > 128 µg/mL; in the experiment with Staphylococcus aureus, 128 µg/mL (≈ 261 µM); in experiment [1], 4 µg/mL (≈ 8.15 µM); against Staphylococcus hominis it was 64 µg/mL (≈ 130 µM).

Regarding `CC(=O)NC[C@H]1CN(c2ccc(N3CCN(S(=O)(=O)c4cccs4)CC3)c(F)c2)C(=O)O1`, the MIC with Streptococcus is 4 µg/mL (≈ 8.29 µM); against Streptococcus pneumoniae, 4 µg/mL (≈ 8.29 µM); with Staphylococcus aureus it was 16 µg/mL (≈ 33.2 µM); in experiment [1] it was 4 µg/mL (≈ 8.29 µM).

Regarding `CC(=O)NC[C@H]1CN(c2ccc(N3CCN(S(=O)(=O)c4cccc([N+](=O)[O-])c4)CC3)c(F)c2)C(=O)O1`, the MIC in the experiment with Streptococcus turned out to be 4 µg/mL (≈ 7.67 µM); against Streptococcus pneumoniae, 1 µg/mL (≈ 1.92 µM); with Staphylococcus aureus, 4 µg/mL (≈ 7.67 µM); in experiment [1], 0.25 µg/mL (≈ 0.479 µM); against Staphylococcus hominis, 0.5 µg/mL (≈ 0.959 µM).

Turning to `CC(=O)NC[C@H]1CN(c2ccc(N3CCN(S(=O)(=O)c4cccc(N)c4)CC3)c(F)c2)C(=O)O1`, the MIC in the experiment with Streptococcus was found to be 1 µg/mL (≈ 2.03 µM); in the experiment with Streptococcus pneumoniae it was 1 µg/mL (≈ 2.03 µM); against Staphylococcus aureus, 0.5 µg/mL (≈ 1.02 µM); in experiment [1], 0.25 µg/mL (≈ 0.509 µM); with Staphylococcus hominis, 0.25 µg/mL (≈ 0.509 µM).

In the case of `CC(=O)NC[C@H]1CN(c2ccc(N3CCN(S(C)(=O)=O)CC3)c(F)c2)C(=O)O1`, the MIC came to 4 µg/mL (≈ 9.65 µM) against Streptococcus; 2 µg/mL (≈ 4.83 µM) with Streptococcus pneumoniae; 4 µg/mL (≈ 9.65 µM) with Staphylococcus aureus; 0.5 µg/mL (≈ 1.21 µM) in experiment [1]; 2 µg/mL (≈ 4.83 µM) against Staphylococcus hominis.

Turning to `CC(=O)NC[C@H]1CN(c2ccc(N3CCN(S(=O)(=O)c4ccccc4)CC3)c(F)c2)C(=O)O1`, the MIC in the experiment with Streptococcus stood at 4 µg/mL (≈ 8.39 µM); in the experiment with Streptococcus pneumoniae it was 2 µg/mL (≈ 4.2 µM); against Staphylococcus aureus it was 4 µg/mL (≈ 8.39 µM); in experiment [1], 0.25 µg/mL (≈ 0.525 µM); against Staphylococcus hominis, 1 µg/mL (≈ 2.1 µM).

As for `CC(=O)NC[C@H]1CN(c2ccc(N3CCOCC3)c(F)c2)C(=O)O1` [LINEZOLID], the MIC stood at 2 µg/mL (≈ 5.93 µM) against Streptococcus, 0.5 µg/mL (≈ 1.48 µM) in experiment [1] and 1 µg/mL (≈ 2.96 µM) in the experiment on Staphylococcus hominis.
